Data on 2 compounds can be found in patent US20150038668A1, “Branched Polyesters Based On Citric Acid, Their Preparation And Use” (BASF SE, priority 2010, published 2015).

The data set in a line: physchem. As to conditions: thermodynamic from solid. The protocol: To increase the solubility of the low-solubility active ingredients, 40 ml of a 15% polymer solution (in DI water) were prepared. […] If the added active ingredient dissolved, further active ingredient was added, to supersaturation, followed by stirring for a further 72 hours. The resulting suspension was filtered through a 0.45 μm membrane filter and the dissolved fraction of active ingredient was determined by means of UV/Vis spectroscopy. The same method was also carried for the active ingredients alone, in order to determine the solubility of the pure active ingredient and to be able to determine the improvement through salt formation. For comparison, the solubility in 0.1 normal HCl as well was ascertained, representing the solubility of the hydrochloride salt of the corresponding base.

Values after ≈ are worked out from the molar mass of the structure shown.

With `NC(N)=Nc1nc(CSCCC(N)=NS(N)(=O)=O)cs1` [Famotidine, famotidine], the solubility (thermodynamic) (commonly the concentration in solution at equilibrium with solid) at 72 h runs as follows: (simulated gastric fluid) 32100 µg/mL (≈ 95100 µM); (water) 1000 µg/mL (≈ 2960 µM).
For `CN(C)C(=O)C(CCN1CCC(O)(c2ccc(Cl)cc2)CC1)(c1ccccc1)c1ccccc1` [Loperamide, loperamide], in that order: 200 µg/mL (≈ 419 µM) and 70 µg/mL (≈ 147 µM).
